Assay in all cases: inhibition of tumour cell growth, NCI panel, 48 h
Assay [1] concerns Malme-3M.
In assay [2] the test system is IGROV-1.
In assay [3] the test system is UACC-257.
Assay [4] relates to SR.
The subject of assay [5] is U-251.
In assay [6] the test system is SK-MEL-28.
The test system of assay [7] is HOP-92.
For assay [8], the system named is NCI/ADR-RES.
The test system of assay [9] is SNB-75.
Assay [10] concerns UO-31.
The test system of assay [11] is MDA-MB-435.
Assay [12] has as its system HL-60.
For assay [13], the system named is OVCAR-3.
For assay [14], the system named is SF-268.
The test system of assay [15] is OVCAR-4.
Assay [16] concerns OVCAR-5.
In assay [17] the test system is M14.
The test system of assay [18] is OVCAR-8.
For assay [19], the system named is SK-MEL-5.
Assay [20] deals with RXF 393.

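Where inhibition never reached the appropriate level, the endpoint shown equals the highest concentration tested. Otherwise, values were interpolated linearly from a five-concentration, 48-hour dose response in 96-well plates. GI50 = concentration required for 50% inhibition of growth.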 Calls of active or inactive are those of the source. Rule as the data show it: active = GI50 up to about 1.1 µM and inactive = higher. Where a SMILES comes first, the peptide text is derived from it. The star is where a group is joined. Boc = CC(C)(C)OC(=O)*

`Cc1ccc(/C=C2\CCCc3ccccc3C2=O)cc1`: the GI50 was 8.95 µM (inactive) in assay [1]; 7.14 µM (inactive) in [2]; 21.9 µM (inactive) in assay [3]; 13.9 µM (inactive) in [4]; 17.4 µM (inactive) in assay [5]; 22.4 µM (inactive) in assay [6]. Besides, the GI50 in assay [7] is 18.5 µM (inactive); in assay [8] it was 8.67 µM (inactive); in [9] it was 21.2 µM (inactive); in [10] it was 29.6 µM (inactive); in assay [11], 2.6 µM (inactive); in assay [12], 11.2 µM (inactive). Moreover, the GI50 in [13] was 15 µM (inactive); in [14], 11.2 µM (inactive); in assay [15], 25.9 µM (inactive); in [16], 10.3 µM (inactive); in assay [17], 3.21 µM (inactive); in assay [18] it was 22.4 µM (inactive).
On to `CNC(=O)CNC(=O)C(NC(=O)CNC(=O)C1CCCN1C(=O)C(C)NC(=O)C(NC(=O)OC(C)(C)C)C(C)C)C(C)C` (centres undefined) (Boc-VAPGVG-NHMe; configuration not given here), for which the GI50 in assay [1], in assay [2], in assay [3], in assay [4], in assay [5] and in assay [6] was > 100 µM (inactive) in each case. Further, the GI50 in assay [7], in assay [8], in assay [9], in [10], in assay [11] and in [12] was > 100 µM (inactive) throughout. In addition, the GI50 in assay [13], in [14], in [15], in [16], in assay [17] and in assay [18] was > 100 µM (inactive) each time.
Consider `O=S1(=O)OC(c2ccc(O)cc2)(c2ccc(O)cc2)c2ccccc21` [PHENOLSULFONPHTHALEIN], for which the GI50 in assay [1], in assay [2], in assay [3], in [5], in assay [6] and in [7] was > 100 µM (inactive) throughout. Also, the GI50 in assay [8], in assay [19], in assay [9], in assay [10], in [11] and in assay [12] was > 100 µM (inactive) in each case. Besides, the GI50 in assay [13], in [20], in assay [14], in assay [15], in assay [16] and in [17] was > 100 µM (inactive) each time. Besides, the GI50 in assay [18] was > 100 µM (inactive).
Regarding `Oc1ccc(CCNCc2cc3c(cc2Br)OCO3)cc1`, the GI50 in assay [1] was 62.8 µM (inactive); in assay [2] it was > 100 µM (inactive); in [3], 50.2 µM (inactive); in [4] it was 32.4 µM (inactive); in assay [5], 77.8 µM (inactive); in assay [6], 37.2 µM (inactive). Also, the GI50 in assay [7] was > 100 µM (inactive); in assay [8], 47.5 µM (inactive); in assay [19] it was 27.1 µM (inactive); in [9], 18.4 µM (inactive); in [10], 55.7 µM (inactive); in assay [12] it was 28.1 µM (inactive). For the same compound, the GI50 in assay [13] is 30.1 µM (inactive); in assay [20] it was 69.5 µM (inactive); in assay [14], > 100 µM (inactive); in assay [16] it was > 100 µM (inactive); in assay [17], 38.1 µM (inactive); in [18] it was > 100 µM (inactive).
Regarding `CNC(=O)CNC(=O)C(NC(=O)CNC(=O)C1CCCN1C(=O)C(C)NC(=O)C(NC(C)=O)C(C)C)C(C)C` (centres undefined) (Ac-VAPGVG-NHMe; configuration not given here), the GI50 in assay [1], in assay [2], in [3], in assay [4], in assay [5] and in [6] was > 100 µM (inactive) each time. In addition, the GI50 in assay [7], in assay [8], in assay [10], in assay [11], in assay [12] and in assay [13] was > 100 µM (inactive) in each case. The GI50 in assay [14], in assay [15], in [16], in assay [17] and in [18] was > 100 µM (inactive) throughout.
For `CC(C)=NN/C(=N\c1ccc(Cl)cc1)NS(=O)(=O)c1cc2ccccc2s1`, the GI50 in assay [1] was 89.9 µM (inactive); in [2], 34.2 µM (inactive); in assay [3], 55.3 µM (inactive); in assay [5], > 100 µM (inactive); in assay [6] it was > 100 µM (inactive); in [7] it was 38.9 µM (inactive). The GI50 in [8] is 51.1 µM (inactive); in assay [19], > 100 µM (inactive); in assay [10] it was 30.5 µM (inactive); in assay [11], 36.7 µM (inactive); in [12] it was 29.2 µM (inactive); in [13] it was 57 µM (inactive). For the same compound, the GI50 in [14] is 76.7 µM (inactive); in assay [15], 46.9 µM (inactive); in [16], 32.7 µM (inactive); in assay [17], 56.5 µM (inactive); in assay [18] it was > 100 µM (inactive).
Consider `CC(=O)Nc1ccc2cc(C#N)c(=O)[nH]c2n1`, for which the GI50 was > 100 µM (inactive) in [1]; > 100 µM (inactive) in assay [2]; > 100 µM (inactive) in assay [3]; 81.3 µM (inactive) in [5]; > 100 µM (inactive) in [6]; > 100 µM (inactive) in assay [7]. In addition, the GI50 in assay [8], in assay [19], in assay [9], in assay [10], in assay [11] and in [13] was > 100 µM (inactive) in each case. Further, the GI50 in assay [20], in [14], in assay [15], in assay [16], in [17] and in assay [18] was > 100 µM (inactive) in each case.
As to `C=C1C(=O)O[C@@H]2C(=O)[C@@H](C)CCC/C(C)=C/CC[C@@]3(C)O[C@@H]3C[C@@H]12`, the GI50 in assay [1] was 23 µM (inactive); in assay [2], 15.7 µM (inactive); in assay [3] it was 56.8 µM (inactive); in assay [5], 98.9 µM (inactive); in assay [6], > 100 µM (inactive); in assay [7], 13.2 µM (inactive). In addition, the GI50 is 95.3 µM (inactive) in assay [8]; 29.9 µM (inactive) in [19]; 0.438 µM (active) in assay [9]; 92.7 µM (inactive) in assay [10]; 51.3 µM (inactive) in assay [11]; 16.5 µM (inactive) in assay [12]. For the same compound, the GI50 in [13] is 46.3 µM (inactive); in assay [20] it was 3.75 µM (inactive); in assay [15] it was 79.4 µM (inactive); in assay [16], > 100 µM (inactive); in assay [17] it was 54.2 µM (inactive); in assay [18], 68.5 µM (inactive).
Consider `CCCC/C=C/C/C=C/CCCCCCCCC(=O)OCC1CCCN2CCCCC12` (centres undefined), for which the GI50 was 87.5 µM (inactive) in assay [1]; 63.2 µM (inactive) in assay [3]; > 100 µM (inactive) in assay [5]; > 100 µM (inactive) in [6]; 31.7 µM (inactive) in [7]; > 100 µM (inactive) in assay [8]. Moreover, the GI50 was > 100 µM (inactive) in assay [19]; > 100 µM (inactive) in assay [9]; 59.4 µM (inactive) in assay [10]; > 100 µM (inactive) in assay [11]; 17.3 µM (inactive) in assay [12]; > 100 µM (inactive) in assay [13]. Further, the GI50 was > 100 µM (inactive) in assay [20]; > 100 µM (inactive) in assay [14]; 79.8 µM (inactive) in assay [15]; > 100 µM (inactive) in assay [16]; > 100 µM (inactive) in assay [17]; > 100 µM (inactive) in assay [18].
For the compound `O=C1Oc2ccccc2C(=O)/C1=C/N1C(=O)CNC1=S`, the GI50 in assay [2], in [3], in assay [5], in [6], in [8] and in [19] was > 100 µM (inactive) in each case. For the same compound, the GI50 in assay [10] is 23 µM (inactive); in [11], > 100 µM (inactive); in assay [12], 44 µM (inactive); in assay [13] it was > 100 µM (inactive); in assay [20], 26.9 µM (inactive); in assay [14], > 100 µM (inactive). For the same compound, the GI50 in assay [15], in assay [16], in [17] and in assay [18] was > 100 µM (inactive) in each case.
For the compound `COc1ccc(/C=C2/S/C(=N\c3ccccc3)N(NC(=O)Cc3ccccc3)C2=O)c(OC)c1`, the GI50 in assay [2] is > 100 µM (inactive); in assay [3], > 100 µM (inactive); in assay [5] it was > 100 µM (inactive); in assay [6], > 100 µM (inactive); in [7] it was 3.37 µM (inactive); in assay [8] it was > 100 µM (inactive). Moreover, the GI50 in [19] is 69.5 µM (inactive); in assay [9], > 100 µM (inactive); in [10], 98.9 µM (inactive); in assay [11], > 100 µM (inactive); in [13], > 100 µM (inactive); in [20] it was > 100 µM (inactive). Also, the GI50 in [14], in assay [15], in assay [16], in assay [17] and in assay [18] was > 100 µM (inactive) in each case.

The record behind these values is ChEMBL document CHEMBL1201862, “PubChem BioAssay data set” (2004).
